Test results as given in the NIST ThermoML archive (doi:10.1021/acs.jced.7b00221).

Test: xn = mol fraction of the nth substance listed
Conditions: 100 kPa, Liquid, Cone and plate viscometry

CCCCCCCCCCCCCC[P+](CCCCCC)(CCCCCC)CCCCCC.N#Cc1ccc[n-]1 [trihexyl(tetradecyl)phosphonium 2-cyanopyrrolide] + CCCCCCn1cc[n+](C)c1C.O=S(=O)([N-]S(=O)(=O)C(F)(F)F)C(F)(F)F
viscosity [mPa·s]
Conditions | 278.15 K | 283.15 K | 288.15 K | 293.15 K | 298.15 K | 303.15 K | 308.15 K | 313.15 K | 318.15 K | 323.15 K
x1 = 0.1 | 701 | 472 | 328 | 234 | 173 | 131 | 102 | 81 | – | –
x1 = 0.201 | 895 | 598 | 411 | 290 | 212 | 159 | 122 | 96 | 77 | 63
x1 = 0.3 | 1056 | 699 | 474 | 332 | 240 | 178 | 136 | 105 | 83 | 67
x1 = 0.399 | 1356 | 897 | 607 | 422 | 304 | 224 | 169 | 130 | 103 | 82
x1 = 0.5 | 1594 | 1048 | 705 | 488 | 350 | 257 | 193 | 148 | 116 | 93
x1 = 0.601 | 1658 | 1093 | 734 | 507 | 361 | 264 | 197 | 151 | 117 | 94
x1 = 0.699 | 1745 | 1141 | 764 | 527 | 375 | 273 | 204 | 155 | 120 | 96
x1 = 0.799 | 1868 | 1221 | 820 | 566 | 403 | 294 | 219 | 167 | 130 | 103
x1 = 0.902 | 1930 | 1279 | 867 | 602 | 430 | 315 | 237 | 180 | 141 | 112
x1 = 1 | 1764 | 1179 | 804 | 563 | 404 | 297 | 223 | 170 | 133 | 106

CC(=O)[O-].CCCCCCCCCCCCCC[P+](CCCCCC)(CCCCCC)CCCCCC [trihexyl(tetradecyl)phosphonium acetate] + CCCCCC[n+]1ccn(C)c1.O=S(=O)([N-]S(=O)(=O)C(F)(F)F)C(F)(F)F
viscosity [mPa·s]
Conditions | 278.15 K | 283.15 K | 288.15 K | 293.15 K | 298.15 K | 303.15 K | 308.15 K | 313.15 K | 318.15 K | 323.15 K
x1 = 0.101 | 353 | 251 | 182 | 136 | 105 | 82 | 66 | 53 | – | –
x1 = 0.199 | 579 | 404 | 286 | 209 | 156 | 120 | 94 | 75 | 61 | –
x1 = 0.3 | 946 | 644 | 447 | 319 | 235 | 177 | 136 | 107 | 85 | 70
x1 = 0.4 | 1403 | 939 | 640 | 449 | 324 | 239 | 181 | 140 | 110 | 88
x1 = 0.499 | 2057 | 1345 | 901 | 621 | 440 | 320 | 238 | 181 | 141 | 112
x1 = 0.6 | 2588 | 1669 | 1100 | 746 | 523 | 376 | 277 | 207 | 159 | 124
x1 = 0.699 | 2721 | 1763 | 1160 | 785 | 530 | 381 | 279 | 208 | 159 | 125
x1 = 0.799 | 2877 | 1850 | 1219 | 827 | 578 | 414 | 304 | 228 | 175 | 137
x1 = 0.899 | 2415 | 1575 | 1047 | 717 | 505 | 366 | 271 | 204 | 158 | 123
